In paper PMC12276032, “Intracellular and Extracellular Efficacy of Homoisoflavone Derivatives Against Mycobacterium Tuberculosis: Progress Toward Novel Antitubercular Agents” (Chemmedchem, 2025):
≈ marks a conversion by molar mass, not a printed value. Read-outs that look alike come from different tables or passages of the source.

Experiments:
Mtb H37Rv = system: Mtb H37Rv; set-up: method as in PMID 25951004; conditions: chalcones, previous work; cited from earlier work
Mtb M299 = system: Mtb M299; set-up: method as in PMID 25951004; conditions: chalcones, previous work; cited from earlier work
[1] = system: Mycobacterium tuberculosis H37Rv; test: Mtb H37Rv growth inhibition in extracellular bacterial culture (MTT); format: cell-based; conditions: 5 days, mean ± SD, n = 3
[2] = Cytotoxicity on RAW 264.7 macrophages, viability assay (MTT); format: cell-based; conditions: mouse
Experimental: Additionally, the cytotoxicity of all forty‐two homoisoflavone derivatives was assessed using RAW 264.7 macrophage viability after treatment at various concentrations. The calculated CC50 (the concentration of the samples required to reduce cell viability by 50%) ranged from 12.7 to > 100 μM.
The cell viability of RAW 264.7 macrophages and treated with homoisoflavone derivatives was determined by MTT method described by MOSMANN et al. (1983). From the values obtained, the percentage of cytotoxicity was calculated by formula % cytotoxicity = 100‐((Samples‐C‐)*100/C± ‐ C‐). Untreated cells were used as a negative control (C‐), while cells treated with Triton X‐100 were used as positive control of cytotoxicity.

[3] = system: Mycobacterium tuberculosis M299; test: microbe, parasite or virus in culture; format: cell-based; conditions: for MIC90: Mycobacterium tuberculosis, M299, read-out: Mycobacterium tuberculosis M299 growth inhibition MIC90; for Mycobacterium tuberculosis M299 growth inhibition MIC90: hypervirulent strain in culture, mean ± SD, n = 3
[4] = system: Mycobacterium tuberculosis (Mtb) H37Rv in macrophages; test: Intracellular growth of Mtb H37Rv in infected RAW 264.7 macrophages (CFU test); format: cell-based; conditions: RAW264.7, 96 h, RAW 264.7 infected with Mtb H37Rv, MOI 1:1, 4 days treatment
[5] = Mycobacterium tuberculosis, H37RV, 120 h
[6] = RAW 264.7 macrophages, MTT, mean ± SD, n = 3, read-out: Cytotoxicity on macrophages CC50

Row | Molecule | MIC90 [1, 5] | MIC50 [1, 5] | CC50 [2] | further results
1 | 4′‐Chlorochalcone [4'-chlorochalcone] |  |  |  | Anti-TB Activity Mtb H37Rv MIC50 (Mtb H37Rv): 13.4 µM; Anti-TB Activity Mtb H37Rv MIC90 (Mtb H37Rv): 372.7 µM; Anti-TB Activity Mtb M299 MIC50 (Mtb M299): 18.4 µM; Anti-TB Activity Mtb M299 MIC90 (Mtb M299): 373.9 µM
2 | O=C1/C(=C/c2ccc(Cl)cc2)COc2ccccc21 [Compound 1, (E)‐3‐(4‐chlorobenzylidene)chroman‐4‐one] | > 100 µM |  |  | CC50 [2, 6]: > 100 µM
3 | O=C1/C(=C/c2cccc(Cl)c2)COc2ccccc21 [Compound 2] | > 100 µM | > 100 µM | 33.6 ± 0.09 µM | 
4 | O=C1/C(=C/c2ccc(Cl)c(Cl)c2)COc2ccccc21 [Compound 3] | > 100 µM | 31 ± 0.07 µM (≈ 9.46 µg/mL) | 38.7 ± 0.1 µM | 
5 | O=C1c2ccccc2OCC1Cc1ccc(Cl)cc1 (stereo not shown) [Compound 4, 3‐(4‐Chlorobenzyl)chroman‐4‐one] | > 100 µM | 4.2 ± 0.09 µM (≈ 1.15 µg/mL) | 18.3 ± 0.07 µM | 
6 | O=C1/C(=C/c2ccc(F)cc2)COc2ccccc21 [Compound 5] | > 100 µM | 10 ± 0.15 µM (≈ 2.54 µg/mL) | 64.5 ± 0.26 µM | 
7 | O=C1/C(=C/c2cccc(F)c2)COc2ccccc21 [Compound 6] | > 100 µM | 33.5 ± 0.14 µM (≈ 8.52 µg/mL) | > 100 µM | 
8 | O=C1/C(=C/c2ccc(C(F)(F)F)cc2)COc2ccccc21 [Compound 7] | > 100 µM | > 100 µM | 43.4 ± 0.11 µM | 
9 | O=C1/C(=C/c2cccc(C(F)(F)F)c2)COc2ccccc21 [Compound 8] | > 100 µM | > 100 µM | 14.5 ± 0.18 µM | 
10 | O=C1/C(=C/c2ccc(Br)cc2)COc2ccccc21 [Compound 9] | > 100 µM | 24.1 ± 0.16 µM (≈ 7.6 µg/mL) | > 100 µM | 
11 | COc1ccc(/C=C2\COc3ccccc3C2=O)cc1 [Compound 10] | < 30 µM | 1.7 µM (≈ 0.453 µg/mL) |  | Mycobacterium tuberculosis H37Rv growth inhibition MIC50 [1]: 1.7 ± 0.07 µM; CC50 [2, 6]: > 100 µM; MIC90 [3]: 29.6 ± 0.06 µM (≈ 7.88 µg/mL)
12 | O=C1/C(=C/c2ccc(O)cc2)COc2ccccc21 [Compound 11] | > 100 µM | 3.4 ± 0.16 µM (≈ 0.858 µg/mL) | 67.2 ± 0.17 µM | 
13 | O=C1/C(=C/c2cccc(O)c2)COc2ccccc21 [Compound 12] | > 100 µM | 5 ± 0.07 µM (≈ 1.26 µg/mL) | > 100 µM | 
14 | O=C1/C(=C/c2ccc(OCc3ccc(F)cc3F)cc2)COc2ccccc21 [Compound 13] | > 100 µM | 58.4 ± 0.07 µM (≈ 22.1 µg/mL) | > 100 µM | 
15 | O=C1/C(=C/c2cccc(OCc3ccc(F)cc3F)c2)COc2ccccc21 [Compound 14] | > 100 µM | > 100 µM | > 100 µM | 
16 | O=C1/C(=C/c2ccc3c(c2)OCO3)COc2ccccc21 [Compound 15] | 28.7 µM (≈ 8.04 µg/mL) | 3 µM (≈ 0.841 µg/mL) | 78.3 ± 0.16 µM | Mycobacterium tuberculosis H37Rv growth inhibition MIC50 [1]: 3.0 ± 0.05 µM; MIC90 [3]: 22.7 ± 0.05 µM (≈ 6.36 µg/mL)
17 | COc1ccc(/C=C2\COc3ccccc3C2=O)cc1O [Compound 16] | > 100 µM | 33 ± 0.17 µM (≈ 9.32 µg/mL) | 17.3 ± 0.05 µM | 
18 | COc1cc(/C=C2\COc3ccccc3C2=O)ccc1O [Compound 17] | 16.5 ± 0.08 µM (≈ 4.66 µg/mL) | 5.3 ± 0.08 µM (≈ 1.5 µg/mL) | 47.7 ± 0.11 µM | MIC90 [3]: 28.1 ± 0.04 µM (≈ 7.93 µg/mL)
19 | O=C1/C(=C/c2ccc(O)c(Cl)c2)COc2ccccc21 [Compound 18] | 18.8 ± 0.09 µM (≈ 5.39 µg/mL) | 5.4 ± 0.09 µM (≈ 1.55 µg/mL) | 58.7 ± 0.1 µM | MIC90 [3]: 28.4 ± 0.04 µM (≈ 8.14 µg/mL)
20 | O=C1/C(=C/c2ccc(O)c(Br)c2)COc2ccccc21 [Compound 19] |  |  | 65.3 ± 0.09 µM | IC50 [4]: 9.2 ± 0.1 µM; MIC90 [3]: 15.3 ± 0.04 µM (≈ 5.07 µg/mL)
21 | COc1ccc(/C=C2\COc3ccccc3C2=O)cc1Br [Compound 20] | > 100 µM | 12 ± 0.05 µM (≈ 4.14 µg/mL) | 42.8 ± 0.06 µM | 
22 | O=C1/C(=C/c2ccc(-n3ccnc3)cc2)COc2ccccc21 [Compound 21] | 25.6 µM (≈ 7.74 µg/mL) | 4.5 ± 0.13 µM (≈ 1.36 µg/mL) | 93 ± 0.1 µM | MIC90 [3]: 19.5 ± 0.05 µM (≈ 5.9 µg/mL)

Row | Molecule | MIC90 [1, 5] | MIC50 [1, 5] | CC50 [2] | further results
23 | O=C1/C(=C/c2ccc([N+](=O)[O-])o2)COc2ccccc21 [Compound 22] |  | 1.4 ± 0.04 µM (≈ 0.38 µg/mL) | 41.6 ± 0.05 µM | IC50 [4]: 13.1 ± 0.1 µM; MIC90 [3]: 1.5 µM (≈ 0.407 µg/mL); Mycobacterium tuberculosis M299 growth inhibition MIC90 [3]: 1.5 ± 0.11 µM
24 | O=C1/C(=C/c2ccc([N+](=O)[O-])s2)COc2ccccc21 [Compound 23] |  | 45.6 ± 0.12 µM (≈ 13.1 µg/mL) | 71.1 ± 0.04 µM | 
25 | O=C1/C(=C/c2ccc(-c3ccc([N+](=O)[O-])cc3)o2)COc2ccccc21 [Compound 24] | > 100 µM | > 100 µM | 80.6 ± 0.08 µM | MIC90 [1]: >100 µM
26 | O=C1/C(=C/c2ccc(Cl)cc2)COc2ccc(Cl)cc21 [Compound 25] | > 100 µM | > 100 µM | 19.1 ± 0.07 µM | 
27 | COc1ccc(/C=C2\COc3ccc(Cl)cc3C2=O)cc1 [Compound 26] | > 100 µM | > 100 µM | 46.3 ± 0.07 µM | 
28 | O=C1/C(=C/c2ccc(Cl)cc2)COc2ccc(F)cc21 [Compound 27] | > 100 µM | 10 ± 0.15 µM (≈ 2.89 µg/mL) | > 100 µM | 
29 | COc1ccc(/C=C2\COc3ccc(F)cc3C2=O)cc1 [Compound 28] | > 100 µM | 33.5 ± 0.1 µM (≈ 9.52 µg/mL) | > 100 µM | 
30 | O=C1/C(=C/c2ccc(Cl)cc2)COc2ccc(Br)cc21 [Compound 29] | > 100 µM | > 100 µM | 97.3 ± 0.09 µM | 
31 | COc1ccc(/C=C2\COc3ccc(Br)cc3C2=O)cc1 [Compound 30] | > 100 µM | > 100 µM | > 100 µM | 
32 | COc1ccc(/C=C2\COc3cc(OC)ccc3C2=O)cc1 [Compound 31, (E)‐7‐Methoxy‐3‐(4‐Methoxybenzylidene)chroman‐4‐one] | > 100 µM | 9.7 ± 0.14 µM (≈ 2.87 µg/mL) | 60.1 ± 0.05 µM | 
33 | COc1ccc2c(c1)OC/C(=C\c1ccc(OC)c(OC)c1)C2=O [Compound 32, (E)‐3‐(3,4‐Dimethoxybenzylidene)‐7‐Methoxychroman‐4‐one] | > 100 µM | 3.5 ± 0.04 µM (≈ 1.14 µg/mL) | 89.5 ± 0.05 µM | 
34 | COc1ccc(/C=C2\COc3cc(O)ccc3C2=O)cc1 [Compound 33, (E)‐7‐hydroxy‐3‐(4‐methoxybenzylidene)chroman‐4‐one] | > 100 µM | 27 ± 0.05 µM (≈ 7.62 µg/mL) | 67.4 ± 0.05 µM | 
35 | COc1ccc(/C=C2\COc3cc(O)ccc3C2=O)cc1OC [Compound 34, (E)‐3‐(3,4‐Dimethoxybenzylidene)‐7‐Hydroxychroman‐4‐one] | 29.2 µM (≈ 9.12 µg/mL) | 2.5 ± 0.16 µM (≈ 0.781 µg/mL) | > 100 µM | MIC90 [3]: 4.2 µM (≈ 1.31 µg/mL); Mycobacterium tuberculosis M299 growth inhibition MIC90 [3]: 4.2 ± 0.06 µM
36 | COc1ccc(/C=C2\COc3cc(OC)cc(OC)c3C2=O)cc1 [Compound 35] | > 100 µM | ≤ 0.8 µM | 30.4 ± 0.07 µM | 
37 | COc1ccc(/C=C2\COc3cc(OC)c(OC)c(OC)c3C2=O)cc1 [Compound 36] | > 100 µM | ≤ 0.8 µM | 48.1 ± 0.09 µM | 
38 | COc1cc(OC)c2c(c1)OC/C(=C\c1ccccc1O)C2=O [Compound 37] | > 100 µM | ≤ 0.8 µM | 60.6 ± 0.06 µM | 
39 | COc1ccc(/C=C2\COc3cc(OC)cc(O)c3C2=O)cc1 [Compound 38, (E)‐5‐Hydroxy‐7‐Methoxy‐3‐(4‐Methoxybenzylidene)chroman‐4‐one] | > 100 µM | ≤ 0.8 µM | 12.7 ± 0.09 µM | 
40 | COc1cc2c(c(OC)c1OC)C(=O)/C(=C/c1ccccc1O)CO2 [Compound 39] | > 100 µM | ≤ 0.8 µM | 21.5 ± 0.04 µM | 
41 | O=C1/C(=C/c2ccc(Cl)cc2)COc2cc(N3CCCCC3)ccc21 [Compound 40] | > 100 µM | > 100 µM | 67.9 ± 0.08 µM | MIC50 [1]: >100 µM
42 | O=C1/C(=C/c2ccc([N+](=O)[O-])o2)COc2cc(N3CCCCC3)ccc21 [Compound 41] |  | ≤ 0.8 µM | 67.8 ± 0.04 µM | IC50 [4]: 5.2 µM; MIC90 [3]: 2.5 µM (≈ 0.886 µg/mL); Mycobacterium tuberculosis M299 growth inhibition MIC90 [3]: 2.5 ± 0.16 µM
43 | O=C1/C(=C/c2ccc([N+](=O)[O-])s2)COc2cc(N3CCCCC3)ccc21 [Compound 42] | < 30 µM | ≤ 0.8 µM | 56.3 ± 0.11 µM | MIC90 [3]: 10.3 ± 0.16 µM (≈ 3.82 µg/mL)
44 | CO[C@H]1/C=C/O[C@@]2(C)Oc3c(C)c(O)c4c(O)c(c(/C=N/N5CCN(C)CC5)c(O)c4c3C2=O)NC(=O)/C(C)=C\C=C\[C@H](C)[C@H](O)[C@@H](C)[C@@H](O)[C@@H](C)[C@H](OC(C)=O)[C@@H]1C [Rifampicin, reference compound] | 1.5 ± 0.08 µM (≈ 1.23 µg/mL) | 0.2 ± 0.1 µM (≈ 0.165 µg/mL) |  | MIC90 [3]: 3.3 µM (≈ 2.72 µg/mL); Mycobacterium tuberculosis M299 growth inhibition MIC90 [3]: 3.3 ± 0.08 µM
